Laboratory results taken from patent publication US11414374B2, “Crystalline forms of vilanterol trifenatate and processes for their preparation” (Hovione Scientia Limited, priority 2017, dated 2022).
≈ marks a conversion by molar mass, not a printed value. Entries after “also recorded” stand apart in the source; their conditions may differ. Each block holds one molecule with its values, some of them ahead of it.

Assays:
Type in all cases: physicochemical
[1] = DSC - differential scanning calorimetry; conditions: for DSC (onset) endo. degradation: endothermic event: degradation; for DSC (onset) endo. solvent loss + melting: endothermic event: solvent loss + melting (Form 6: + Form 2 melting; Form 14: + Form 3 melting); for DSC (onset) endo. Form 1 melting: endothermic event: Form 1 melting; for DSC (onset) endo. solvent loss: endothermic event: solvent loss
Method: The analysis was carried out using a DSC Q200 TA instruments equipped with a refrigerator cooling system (RCS40) and autosampler. The sample was weighed in an aluminum hermetic pan with pinhole. The analysis was performed heating the sample from 25° C. to 350° C. at 10° C./min.

[2] = Stability test (60° C. 75% RH-3 d), form by XRPD; conditions: resulting form
[3] = TGA / TGA-EGA thermogravimetric analysis with evolved gas analysis; conditions: for EGA: evolved solvent identified; for TGA overall weight loss: overall loss of the named solvent(s)
Method: The analysis was carried out using the Mettler Toledo TGA/DSC1. The sample was weighed in an aluminum pan hermetically sealed with an aluminum pierced cover. The analysis was performed heating the sample from 25° C. to 320° C. at 10° C./min. TGA-FTIR coupled with Thermo Nicoled is 10 spectometer. The analysis was carried out using the mettler toledo TGA/DSC1. The sample was weighed in an aluminum pan hermetically sealed with an aluminum pierced cover. The analysis was performed heating the sample from 25° C. to 320° C. at 10° C./min. The evolved gas is compared with ft-ir spectra database for identification.

[4] = Dynamic vapor sorption (DVS) analysis / hygroscopicity (EP 7.0 classification); conditions: for Hygroscopically (DVS): DVS hygroscopicity class; for XRPD after DVS: resulting form after DVS; for mass increase by dynamic vapor sorption analysis (hygroscopicity): first sorption cycle, relative to 40% RH; for Change In Mass (%) Desorption / Change In Mass (%) Hysteresis / Change In Mass (%) Sorption: DVS, 25° C.
Method: The hygroscopicity value is directly obtained from the sorption row at 80% RH, cycle 1.
Hygroscopicity of a sample of each of new form II and comparative form I was determined using the protocol provided below in conditions of 80% RH and 25° C.
The sample was subjected to DVS measuring using SMS-DVS intrinsic. The kinetic moisture sorption measurement was performed at 25° C. and in a RH % range described in the following: • From 40% RH to 90% RH • Form 90% RH to 0% RH • From 0% RH to 90% RH • From 90% RH to 0% RH
The sample was analyzed by XRPD after the analysis.
The hygroscopicity was calculated using the following equation: % Weight Change=[(W2−W1)/W1]*100 W1: weight of sample at the start of the experiment (25° C. and 40% RH) W2: weight of sample at 25° C. and 80% RH in the first absorption cycle

[5] = Stability test (sealed vial 18 h), form by XRPD; conditions: resulting form
[6] = Storage stability of exposed powder at 25° C. and 60% RH for seven days, compared by XRPD; conditions: for Stability test (25° C. 60% RH-7 d): resulting form
Method: Approximately 30 mg of exposed powder of comparative form 1 and new forms II and III, respectively, were stored at 25′C and 60% RH for seven days. Each powder was then analyzed by XRPD and its diffraction pattern was compared with that of untreated sample.

[7] = Stability test (exposed sample 16 h), form by XRPD; conditions: resulting form
XRPD after Grinding = conditions: resulting form after grinding
[8] = Micronization in fluid energy jet mill: particle size distribution and XRPD of product
Excerpt: Vilanterol trifenatate form II is fed to a fluid energy jet mill at 10-100 g/h, operated with N2 at a pressure of 1 to 8 bar for the venturi and a pressure of 1 to 8 bar for the ring.

[9] = Visual solubility in differing solvents (European Pharmacopeia 6.0 section 5.11)
Method: Visual solubility of certain forms (compounds) in differing solvents was assessed according to the procedure described in the European Pharmacopeia 6.0 section 5.11. p. The compound was shaken vigorously for 1 min and placed in a constant temperature device for 15 min at 25.0±0.5° C. If the compound was not completely dissolved, the shaking was repeated for 1 min and the tube placed in a constant temperature device for 15 min. 50 mg of compound was weighed in a stoppered tube, 0.05 mL of the solvent added and the Dissolving Procedure (see above) followed. If the compound was completely dissolved, it is very soluble. If the compound was not completely dissolved, a further 0.45 mL of the solvent was added and the Dissolving Procedure (see above) followed. […] If the compound was still not completely dissolved, still further 1.0 mL of the solvent was added and the Dissolving Procedure (see above) followed. If the compound was completely dissolved, it is soluble. If the compound was still not completely dissolved, another 3.5 mL of the solvent was added and the Dissolving Procedure (see above) followed. […] If the compound was still not completely dissolved, the compound is slightly soluble or very slightly soluble. In this case, and the suspension was heated up to the boiling point (max 80° C.) under stirring to verify the solubility at high temperature. The hot solution was afterwards cooled to room temperature to observe whether the compound precipitates. If the compound at room temperature was completely dissolved, it is soluble at high temperature. [table]

SMILES: OCc1cc([C@@H](O)CNCCCCCCOCCOCc2c(Cl)cccc2Cl)ccc1O [form X, vilanterol trifenatate]
DSC (onset) endo. degradation ([1]; listed as Form 10): endo. 188 °C
DSC (onset) endo. solvent loss + melting ([1]; listed as Form 10): endo. 69 °C solvent
Stability test (60° C. 75% RH-3 d) ([2]; listed as Form 10): Form 1
EGA ([3]; listed as Form 10): Ethanol
Hygroscopically (DVS) ([4]; listed as Form 10): Slightly
XRPD after DVS ([4]; listed as Form 10): Form 1
Stability test (sealed vial 18 h) ([5]; listed as Form 10): Form 10
Stability test (25° C. 60% RH-7 d) ([6]; listed as Form 10): Form 1
Stability test (exposed sample 16 h) ([7]; listed as Form 10): Form 10
XRPD after Grinding (XRPD after Grinding; listed as Form 10): Amorphous

SMILES: OCc1cc([C@@H](O)CNCCCCCCOCCOCc2c(Cl)cccc2Cl)ccc1O [form XI, vilanterol trifenatate]
DSC (onset) endo. Form 1 melting ([1]; listed as Form 11): endo. 135 °C Form 1
DSC (onset) endo. degradation ([1]; listed as Form 11): endo. 188.6 °C
DSC (onset) endo. solvent loss ([1]; listed as Form 11): endo. 50-100 °C solvent loss
Stability test (60° C. 75% RH-3 d) ([2]; listed as Form 11): Form 1 (almost
EGA ([3]; listed as Form 11): Cyclohexane and 2-
TGA overall weight loss ([3]; listed as Form 11): loss of 51% w/w
Hygroscopically (DVS) ([4]; listed as Form 11): Slightly hygroscopic (Increase in mass is less than 2% and equal to or greater than 0.2%)
XRPD after DVS ([4]; listed as Form 11): Ascribable to Form 11
Stability test (sealed vial 18 h) ([5]; listed as Form 11): Form 11
Stability test (25° C. 60% RH-7 d) ([6]; listed as Form 11): Form 1 (start
Stability test (exposed sample 16 h) ([7]; listed as Form 11): Form 11
XRPD after Grinding (XRPD after Grinding; listed as Form 11): Form 12

More lines, main results first:

DSC (onset) endo. Form 1 melting ([1]; listed as Form 12): endo. 134 °C Form 1
DSC (onset) endo. degradation ([1]; listed as Form 12): endo. 189 °C
DSC (onset) endo. solvent loss ([1]; listed as Form 12): endo. 21 °C solvent loss
Stability test (60° C. 75% RH-3 d) ([2]; listed as Form 12): Form 1 (almost
EGA ([3]; listed as Form 12): Water and 1.2-
TGA overall weight loss ([3]; listed as Form 12): One loss of 61.6% w/w
Hygroscopically (DVS) ([4]; listed as Form 12): Slightly
XRPD after DVS ([4]; listed as Form 12): Form 1
Stability test (sealed vial 18 h) ([5]; listed as Form 12): Form 12
Stability test (25° C. 60% RH-7 d) ([6]; listed as Form 12): Form 1 (almost
Stability test (exposed sample 16 h) ([7]; listed as Form 12): Form 12
XRPD after Grinding (XRPD after Grinding; listed as Form 12): Amorphous (few
SMILES: OCc1cc([C@@H](O)CNCCCCCCOCCOCc2c(Cl)cccc2Cl)ccc1O [form XII, vilanterol trifenatate]

particle size distribution Dv90 after micronization ([8]; fluid energy jet mill, N2): below 10 μm
mass increase by dynamic vapor sorption analysis (hygroscopicity) ([4]; 80% RH and 25° C.): 0.04%
mass increase by dynamic vapor sorption analysis (hygroscopicity) ([4]; 80% RH and 25° C., listed as polymorph II): 0.04%
Change In Mass (%) Desorption ([4]; Cycle 1, target RH 0.0%): −0.03351%
Change In Mass (%) Desorption ([4]; Cycle 1, target RH 10.0%): −0.01706%
Change In Mass (%) Desorption ([4]; Cycle 1, target RH 20.0%): −0.00684%
Change In Mass (%) Desorption ([4]; Cycle 1, target RH 30.0%): 0.00031%
Change In Mass (%) Desorption ([4]; Cycle 1, target RH 40.0%): 0.00692%
Change In Mass (%) Hysteresis ([4]; Cycle 1, target RH 40.0%): 0.00707%
Change In Mass (%) Sorption ([4]; Cycle 1, target RH 40.0%): −0.00015%
Change In Mass (%) Desorption ([4]; Cycle 1, target RH 50.0%): 0.01476%
Change In Mass (%) Hysteresis ([4]; Cycle 1, target RH 50.0%): 0.00868%
Change In Mass (%) Sorption ([4]; Cycle 1, target RH 50.0%): 0.00607%
Change In Mass (%) Desorption ([4]; Cycle 1, target RH 60.0%): 0.02244%
Change In Mass (%) Hysteresis ([4]; Cycle 1, target RH 60.0%): 0.00892%
Change In Mass (%) Sorption ([4]; Cycle 1, target RH 60.0%): 0.01353%
Change In Mass (%) Desorption ([4]; Cycle 1, target RH 70.0%): 0.03051%
Change In Mass (%) Hysteresis ([4]; Cycle 1, target RH 70.0%): 0.00892%
Change In Mass (%) Sorption ([4]; Cycle 1, target RH 70.0%): 0.0216%
Change In Mass (%) Desorption ([4]; Cycle 1, target RH 80.0%): 0.04181%
Change In Mass (%) Hysteresis ([4]; Cycle 1, target RH 80.0%): 0.0043%
Change In Mass (%) Sorption ([4]; Cycle 1, target RH 80.0%): 0.0375%
Change In Mass (%) Desorption ([4]; Cycle 1, target RH 90.0%): 0.05802%
Change In Mass (%) Sorption ([4]; Cycle 1, target RH 90.0%): 0.05802%
Change In Mass (%) Sorption ([4]; Cycle 2, target RH 0.0%): −0.03351%
Change In Mass (%) Sorption ([4]; Cycle 2, target RH 10.0%): −0.0229%
Change In Mass (%) Sorption ([4]; Cycle 2, target RH 20.0%): −0.01545%
Change In Mass (%) Sorption ([4]; Cycle 2, target RH 30.0%): −0.00907%
Change In Mass (%) Sorption ([4]; Cycle 2, target RH 40.0%): −0.00261%
Change In Mass (%) Sorption ([4]; Cycle 2, target RH 50.0%): 0.00277%
Change In Mass (%) Sorption ([4]; Cycle 2, target RH 60.0%): 0.01068%
Change In Mass (%) Sorption ([4]; Cycle 2, target RH 70.0%): 0.01821%
Change In Mass (%) Sorption ([4]; Cycle 2, target RH 80.0%): 0.03189%
Change In Mass (%) Sorption ([4]; Cycle 2, target RH 90.0%): 0.04819%
stability / XRPD pattern after DVS analysis ([4]; XRPD after DVS analysis, compared with untreated sample): showed stability after DVS analysis
solubility at 15 min ([9]; ethanol, 50 °C, organic solvent or mixture, thermodynamic from solid, ethanol at 50° C., read-out: visual solubility in ethanol): 10 to 33 mg/mL (≈ 20.6 to 67.8 mM)
visual solubility in water ([9]; water at 75° C.): insoluble
SMILES: OCc1cc([C@@H](O)CNCCCCCCOCCOCc2c(Cl)cccc2Cl)ccc1O [form II, vilanterol trifenatate]
XRPD of micronized product versus starting material ([8]; after fluid energy jet milling): identical to the one of the starting material
hygroscopicity classification according to the European Pharmacopoeia (EP, version 7.0) ([4]; 80% RH and 25° C.): non-hygroscopic; also recorded: not hygroscopic
modifications in XRPD pattern after storage (structural stability) ([6]; 60% RH and 25° C. for 7 days, exposed powder): No significant modifications in XRPD pattern

DSC (onset) endo. solvent loss + melting ([1]; listed as Form 6): endo. 80 °C solvent loss +
DSC (onset) endo. solvent loss ([1]; listed as Form 6): endo. 65 °C solvent loss
Stability test (60° C. 75% RH-3 d) ([2]; listed as Form 6): Amorphous
EGA ([3]; listed as Form 6): 2-Propanol
TGA overall weight loss ([3]; listed as Form 6): One weight loss of 73% w/w
XRPD after DVS ([4]; listed as Form 6): Form 6
Stability test (sealed vial 18 h) ([5]; listed as Form 6): Form 6
Stability test (25° C. 60% RH-7 d) ([6]; listed as Form 6): Form 1 (almost
Stability test (exposed sample 16 h) ([7]; listed as Form 6): Form 12
SMILES: OCc1cc([C@@H](O)CNCCCCCCOCCOCc2c(Cl)cccc2Cl)ccc1O [form VI, vilanterol trifenatate]
Hygroscopically (DVS) ([4]; listed as Form 6): Slightly hygroscopic (Increase in mass is less than 2% and equal to or greater than 0.2%)
